In patent US5591741A, “Fungicidal spiroheterocyclic derivatives” (American Cyanamid Company, priority 1993, dated 1997):

Experiments:
[1] = system: Plasmopara viticola; test: Antisporulant activity against vine downy mildew (PVA); assay type: in vivo; conditions: vine leaves, antisporulant foliar spray, 600 ppm, 750 l/ha
Outline: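 Cabernet Sauvignon vines (~8 cm) inoculated on lower leaf surfaces with 5×10^4 zoosporangia/ml, held 24 h at 21° C high humidity then 24 h glasshouse. Infected leaves sprayed underside with 600 ppm compound in 1:1 water/acetone, 0.04% Tween 20, 750 l/ha; 96 h glasshouse, 24 h humidity. Sporulating leaf area rated versus control.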

[2] = system: Alternaria solani; test: Activity against tomato early blight (AS); assay type: in vivo; conditions: Table VI; tomato seedlings, contact prophylactic foliar spray, 4 days
Outline: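 Foliar contact prophylactic spray on tomato seedlings (cv Outdoor Girl, second true leaf expanded) in acetone/water 50:50 with 0.04% Tween 20; 24 h at 20° C, 40% R.H., then inoculation with 10^4 spores/ml A. solani conidia. Kept moist at 21° C; lesion cover rated 4 days post-inoculation against untreated or diluent-sprayed controls.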

[3] = system: Botrytis cinerea; test: Direct protectant activity against broad bean grey mould (BCB); assay type: in vivo; conditions: direct protectant foliar spray, 600 ppm, 4 days
Outline: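 Broad bean plants (cv The Sutton, two leaf pairs) sprayed on upper leaf surfaces at 600 ppm, then inoculated 24 h later with 10^6 conidia/ml. Kept 4 days at 22 °C, high humidity; disease control rated from % leaf area with lesions against untreated or diluent controls.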

[4] = system: Leptosphaeria nodorum; test: Activity against wheat leafspot (LN); assay type: in vivo; conditions: direct therapeutic foliar spray, 600 ppm, 6-8 days
Outline: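 Wheat cv Norman at single-leaf stage spray-inoculated with 1.5×10^6 conidia/ml, held 24 h at high humidity, then sprayed therapeutically with test compound at 600 ppm. Kept 6-8 days at 22° C, 70% humidity; lesion density per leaf rated against untreated or diluent-sprayed controls.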

[5] = system: Erysiphe graminis f.sp. hordei; test: Activity against barley powdery mildew, direct therapeutic (EGT); assay type: in vivo; conditions: direct therapeutic foliar spray, 600 ppm, up to 7 days
Outline: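 Barley seedlings (cv. Golden Promise, single-leaf stage) were dusted with mildew conidia one day before a therapeutic foliar spray of 600 ppm compound. Plants were kept at 18 °C and 40% humidity for up to 7 days, and sporulating leaf area was rated against untreated or diluent-sprayed controls.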

[6] = system: Erysiphe graminis f.sp. hordei; test: Direct protectant activity against barley powdery mildew (EGP); assay type: in vivo; conditions: direct protectant foliar spray, 8 days
Outline: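 Barley seedlings (cv Golden Promise, single-leaf stage) were foliar-sprayed, held 24 h at 18 °C/40% RH, then dusted with mildew conidia. After 8 days at 18 °C/40% RH, sporulating leaf area was scored as a rating against untreated or diluent-sprayed controls.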

[7] = system: Phytophthora infestans; assay type: in vivo; conditions: tomato, direct protectant foliar spray
[8] = system: Pseudocercosporella herpotrichoides; test: Activity against wheat eyespot in-vitro (PHI); assay type: cell-based; conditions: 10 ppm, 10 days, 20° C., mycelial growth
Outline: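 P. herpotrichoides mycelial fragments (5×10^4/ml) grown in half-strength PDB with compound at 10 ppm final, added from acetone. Incubated 10 days at 20 °C; mycelial growth rated against untreated or diluent controls.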

[9] = system: Rhizoctonia solani; test: Activity against Rhizoctonia in-vitro (RSI); assay type: cell-based; conditions: 10 ppm, 10 days, 20° C., mycelial growth
Outline: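 R. solani mycelial fragments (5×10^4/ml) in half-strength Potato Dextrose Broth with compound added from acetone to 10 ppm final. Mycelial growth assessed after 10 days at 20° C, rated against untreated or diluent control.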

[10] = system: Venturia inaequalis; test: Activity against apple scab in-vitro (VII); assay type: cell-based; conditions: 10 ppm, 10 days, 20° C., mycelial growth
Outline: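 Compound in acetone was tested at 10 ppm final in half-strength Potato Dextrose Broth inoculated with V. inaequalis mycelial fragments and spores at 5×10^4 propagules/ml. After 10 days at 20° C, mycelial growth was rated against untreated or diluent controls.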

[11] = system: Pyricularia oryzae; assay type: in vivo; conditions: rice seedlings, direct therapeutic foliar spray, 600 ppm, 4-5 days
[12] = system: Venturis inaequalis; test: In vivo fungicidal activity, Apple Scab (AS); conditions: Table VIa; host plants sprayed; solution of 400 ppm and dilutions
[13] = system: Plasmopara viticola; test: In vivo fungicidal activity, Grape Downy Mildew (GDM); conditions: Table VIa; host plants sprayed; solution of 400 ppm and dilutions; also: ranges in brackets are in %
[14] = system: Botrytis cinerea; test: In vivo fungicidal activity, Pepper Botrytis (PB); conditions: Table VIa; host plants sprayed; solution of 400 ppm and dilutions; also: ranges in brackets are in %
[15] = system: Pyricularia oryzae; assay type: in vivo; conditions: Table VIa; host plants sprayed; solution of 400 ppm and dilutions
[16] = system: Cercospora beticola; test: In vivo fungicidal activity, Sugar Beet Cercospora (SBC); conditions: Table VIa; host plants sprayed; solution of 400 ppm and dilutions; also: ranges in brackets are in %
[17] = system: Alternaria solani; test: In vivo fungicidal activity, Tomato Early Blight (TEB); conditions: Table VIa; host plants sprayed; solution of 400 ppm and dilutions; also: ranges in brackets are in %
[18] = system: Erysiphe graminis f. sp. tritici; test: In vivo fungicidal activity, Wheat Powdery Mildew (WPM); conditions: Table VIa; host plants sprayed; solution of 400 ppm and dilutions
[19] = system: Septoria nodorum; test: In vivo fungicidal activity, Wheat Blotch (WSN); conditions: Table VIa; host plants sprayed; solution of 400 ppm and dilutions
Protocol: Test compounds are dissolved in acetone and diluted with deionized water containing about 0.05% TWEEN 20®, a polyoxyethylene sorbitan monolaurate surfactant manufactured by Atlas Chemical Industries, to give a concentration of 400 ppm. Subsequent dilutions are made with an 0.05% aqueous solution of TWEEN 20®.
Host plants are sprayed with test solution, dried and inoculated with fungi. When disease symptom development is optimal, the plants are rated for disease control according to the rating scale shown below. Each test contains inoculated treated plants, inoculated untreated plants and a reference standard. When more than one test is run, the data are averaged.

Row | SMILES | disease control rating PVA [1] | disease control rating AS [2] | disease control rating BCB [3] | disease control rating LN [4] | disease control rating EGT [5] | disease control rating EGP [6] | disease control rating PIP [7] | disease control rating PHI [8] | disease control rating RSI [9] | disease control rating VII [10] | disease control rating PO [11] | disease control rating AS (Apple Scab) [12] | disease control rating GDM [13] | disease control rating PB [14] | disease control rating RB [15] | disease control rating SBC [16] | disease control rating TEB [17] | disease control rating WPM [18] | disease control rating WSN [19]
1 | CCCCCCNCC1COC2(CCC(C(C)(C)C)CC2)C1 (stereo not shown) [Compound 184, 8-t-butyl-3-n-hexylaminomethyl-1-oxaspiro(4,5)decane] | 0 (less than 50% disease control) | 0 (less than 50% disease control) | 2 (greater than 80% disease control) | 0 (less than 50% disease control) | 2 (greater than 80% disease control) | 2 (greater than 80% disease control) | 0 (less than 50% disease control) | 1 (about 50-80% disease control) | 2 (greater than 80% disease control) | 2 (greater than 80% disease control) | 0 (less than 50% disease control) |  |  |  |  |  |  |  | 
2 | CC(C)(C)C1CCC2(CC1)CC(CNC1CCCCC1)CO2 (stereo not shown) [Compound 185] | 0 (less than 50% disease control) | 1 (about 50-80% disease control) | 1 (about 50-80% disease control) | 0 (less than 50% disease control) | 2 (greater than 80% disease control) | 2 (greater than 80% disease control) | 0 (less than 50% disease control) | 0 (less than 50% disease control) | 0 (less than 50% disease control) | 0 (less than 50% disease control) | 0 (less than 50% disease control) |  |  |  |  |  |  |  | 
3 | CC(C)CN(CC(C)C)CC1COC2(CCC(C(C)(C)C)CC2)C1 (stereo not shown) [Compound 186] | 0 (less than 50% disease control) | 0 (less than 50% disease control) | 0 (less than 50% disease control) | 0 (less than 50% disease control) | 0 (less than 50% disease control) | 2 (greater than 80% disease control) | 0 (less than 50% disease control) | 0 (less than 50% disease control) | 0 (less than 50% disease control) | 0 (less than 50% disease control) | 0 (less than 50% disease control) |  |  |  |  |  |  |  | 
4 | CN(CC1COC2(CCC(C(C)(C)C)CC2)C1)C1CCCCC1 (stereo not shown) [Compound 187] |  |  |  |  |  |  |  |  |  |  |  | 4 (45-59) | 5 (60-74) | 7 (90-95) | 0 (0) | 5 (60-74) | 6 (75-89) | 9 (100) | 7 (90-95)
5 | CCN(CC1COC2(CCC(C(C)(C)C)CC2)C1)C1CCCCC1 (stereo not shown) [Compound 188] |  |  |  |  |  |  |  |  |  |  |  | 5 (60-74) | 0 (0) | 5 (60-74) | 0 (0) | 4 (45-59) | 0 (0) | 8 (96-99) | 6 (75-89)
6 | CC(C)(C)C1CCC2(CC1)CC(CCNC1CCCCC1)CO2 (stereo not shown) [Compound 189, 8-t-Butyl-3-cyclohexylaminoethyl-1-oxaspiro(4,5)decane] | 0 (less than 50% disease control) | 0 (less than 50% disease control) | 0 (less than 50% disease control) | 0 (less than 50% disease control) | 2 (greater than 80% disease control) | 2 (greater than 80% disease control) | 1 (about 50-80% disease control) | 0 (less than 50% disease control) | 0 (less than 50% disease control) | 1 (about 50-80% disease control) | 0 (less than 50% disease control) |  |  |  |  |  |  |  | 
7 | CC(C)(C)C1CCC2(CC1)CC(CCN)CO2.Cl (stereo not shown) [Compound 190, 8-t-butyl-3-aminoethyl-1-oxaspiro(4,5)decane hydrochloride] | 1 (about 50-80% disease control) | 0 (less than 50% disease control) | 0 (less than 50% disease control) | 0 (less than 50% disease control) | 0 (less than 50% disease control) | 1 (about 50-80% disease control) | 2 (greater than 80% disease control) | 0 (less than 50% disease control) | 0 (less than 50% disease control) | 0 (less than 50% disease control) | 0 (less than 50% disease control) |  |  |  |  |  |  |  | 
8 | CN(C)CCC1COC2(CCC(C(C)(C)C)CC2)C1 (stereo not shown) [Compound 191] | 0 (less than 50% disease control) | 0 (less than 50% disease control) | 0 (less than 50% disease control) | 0 (less than 50% disease control) | 0 (less than 50% disease control) | 2 (greater than 80% disease control) | 0 (less than 50% disease control) | 0 (less than 50% disease control) | 0 (less than 50% disease control) | 0 (less than 50% disease control) | 0 (less than 50% disease control) |  |  |  |  |  |  |  | 
9 | CC1CCCC(NCCC2COC3(CCC(C(C)(C)C)CC3)C2)C1 (stereo not shown) [Compound 192] |  |  |  |  |  |  |  |  |  |  |  | 7 (90-95) | 6 (75-89) | 8 (96-99) | 0 (0) | 7 (90-95) | 4 (45-59) | 7 (90-95) | 7 (90-95)
10 | CCCC(CCC)NCCC1COC2(CCC(C(C)(C)C)CC2)C1 (stereo not shown) [Compound 193] |  |  |  |  |  |  |  |  |  |  |  | 6 (75-89) | 8 (96-99) | 7 (90-95) | 0 (0) | 6 (75-89) | 2 (15-29) | 8 (96-99) | 3 (30-44)
11 | CCCCCC(C)NCCC1COC2(CCC(C(C)(C)C)CC2)C1 (stereo not shown) [Compound 194] |  |  |  |  |  |  |  |  |  |  |  | 6 (75-89) | 7 (90-95) | 4 (45-59) | 0 (0) | 8 (96-99) | 3 (30-44) | 7 (90-95) | 7 (90-95)
